For nine cell lines, relative viability results are on record in the supplement of paper PMC10307832.

What all share (test): relative viability (nuclei count vs DMSO), 5 days (fraction); higher = more cells survive
Compound in the assay “VX-11e + Foretinib”: CC1=CN=C(N=C1C2=CNC(=C2)C(=O)N[C@H](CO)C3=CC(=CC=C3)Cl)NC4=C(C=C(C=C4)F)Cl [VX-11e] + COc1cc2c(Oc3ccc(NC(=O)C4(C(=O)Nc5ccc(F)cc5)CC4)cc3F)ccnc2cc1OCCCN1CCOCC1 [Foretinib] (partner 0.25 µM)
The essentials: (§1)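 Relative viability is defined as nuclei in treated wells over nuclei in vehicle wells. Duplicate plates were run and medians reported. Lung cancer cell lines in 1536-well plates were dosed by pin tool one day after seeding, with one drug or with a fixed anchor-drug dose plus five library-drug doses (not always all listed) in √10 steps, and nuclei were counted after 5 days.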

Compound in the assay “VX-11e + Alpelisib”: CC1=CN=C(N=C1C2=CNC(=C2)C(=O)N[C@H](CO)C3=CC(=CC=C3)Cl)NC4=C(C=C(C=C4)F)Cl [VX-11e] + Cc1nc(NC(=O)N2CCC[C@H]2C(N)=O)sc1-c1ccnc(C(C)(C)C(F)(F)F)c1 [Alpelisib] (partner 2 µM)
The essentials: as §1

Compound in the assay “VX-11e + Olaparib”: CC1=CN=C(N=C1C2=CNC(=C2)C(=O)N[C@H](CO)C3=CC(=CC=C3)Cl)NC4=C(C=C(C=C4)F)Cl [VX-11e] + O=C(c1cc(Cc2n[nH]c(=O)c3ccccc23)ccc1F)N1CCN(C(=O)C2CC2)CC1 [Olaparib] (partner 8 µM)
In short, it runs like this:
as §1

Compound in the assay “VX-11e + Pemetrexed”: CC1=CN=C(N=C1C2=CNC(=C2)C(=O)N[C@H](CO)C3=CC(=CC=C3)Cl)NC4=C(C=C(C=C4)F)Cl [VX-11e] + Nc1nc2[nH]cc(CCc3ccc(C(=O)N[C@@H](CCC(=O)O)C(=O)O)cc3)c2c(=O)[nH]1 [Pemetrexed] (partner 0.2 µM)
In short, it runs like this: as §1

In the case of NCI-H727, the relative viability with VX-11e + Foretinib (first compound 0.04 µM) amounted to 0.76; in the assay with VX-11e + Foretinib (first compound 0.1265 µM), 0.775; with VX-11e + Foretinib (first compound 0.4 µM) it was 0.846; in the assay with VX-11e + Foretinib (first compound 1.265 µM) it was 0.55; in the assay with VX-11e + Foretinib (first compound 4 µM), 0.302; with VX-11e + Alpelisib (first compound 0.04 µM), 0.432. In addition, the relative viability was 0.497 with VX-11e + Alpelisib (first compound 0.1265 µM); 0.438 with VX-11e + Alpelisib (first compound 0.4 µM); 0.333 with VX-11e + Alpelisib (first compound 1.265 µM); 0.254 in the assay with VX-11e + Alpelisib (first compound 4 µM); 0.626 in the assay with VX-11e + Olaparib (first compound 0.04 µM); 0.593 with VX-11e + Olaparib (first compound 0.1265 µM). Also, the relative viability with VX-11e + Olaparib (first compound 0.4 µM) was determined as 0.747; in the assay with VX-11e + Olaparib (first compound 1.265 µM), 0.678; in the assay with VX-11e + Olaparib (first compound 4 µM), 0.457.
In the case of NCI-H1299, the relative viability with VX-11e + Foretinib (first compound 0.04 µM) turned out to be 1.2; with VX-11e + Foretinib (first compound 0.1265 µM) it was 1.08; with VX-11e + Foretinib (first compound 0.4 µM), 1.11; with VX-11e + Foretinib (first compound 1.265 µM), 1.23; with VX-11e + Foretinib (first compound 4 µM), 0.52; in the assay with VX-11e + Alpelisib (first compound 0.04 µM), 1.11. The relative viability was found to be 1.03 with VX-11e + Alpelisib (first compound 0.1265 µM); 1.05 in the assay with VX-11e + Alpelisib (first compound 0.4 µM); 1.11 in the assay with VX-11e + Alpelisib (first compound 1.265 µM); 0.708 with VX-11e + Alpelisib (first compound 4 µM); 1 with VX-11e + Olaparib (first compound 0.04 µM); 0.967 in the assay with VX-11e + Olaparib (first compound 0.1265 µM). Moreover, the relative viability with VX-11e + Olaparib (first compound 0.4 µM) is 0.968; with VX-11e + Olaparib (first compound 1.265 µM), 0.92; in the assay with VX-11e + Olaparib (first compound 4 µM), 0.519.
With NCI-H1650, the relative viability turned out to be 1.14 with VX-11e + Foretinib (first compound 0.04 µM); 0.972 with VX-11e + Foretinib (first compound 0.1265 µM); 1.02 in the assay with VX-11e + Foretinib (first compound 1.265 µM); 0.711 in the assay with VX-11e + Foretinib (first compound 4 µM); 0.685 in the assay with VX-11e + Olaparib (first compound 0.04 µM); 0.851 in the assay with VX-11e + Olaparib (first compound 0.1265 µM). For the same cell line, the relative viability stood at 0.814 in the assay with VX-11e + Olaparib (first compound 0.4 µM); 0.793 with VX-11e + Olaparib (first compound 1.265 µM); 0.807 with VX-11e + Olaparib (first compound 4 µM); 0.323 with VX-11e + Pemetrexed (first compound 0.04 µM); 0.335 in the assay with VX-11e + Pemetrexed (first compound 0.1265 µM); 0.334 in the assay with VX-11e + Pemetrexed (first compound 0.4 µM). The relative viability was 0.377 in the assay with VX-11e + Pemetrexed (first compound 1.265 µM) and 0.305 with VX-11e + Pemetrexed (first compound 4 µM).
Take NCI-H2342: the relative viability with VX-11e + Foretinib (first compound 0.04 µM) worked out at 1.15; with VX-11e + Foretinib (first compound 0.1265 µM) it was 1.1; with VX-11e + Foretinib (first compound 0.4 µM) it was 0.98; with VX-11e + Foretinib (first compound 1.265 µM), 1.07; with VX-11e + Foretinib (first compound 4 µM) it was 0.893; with VX-11e + Olaparib (first compound 0.1265 µM), 0.476. The relative viability in the assay with VX-11e + Olaparib (first compound 0.4 µM) is 0.414; with VX-11e + Olaparib (first compound 1.265 µM) it was 0.471; in the assay with VX-11e + Olaparib (first compound 4 µM), 0.367; with VX-11e + Pemetrexed (first compound 0.1265 µM), 0.83; with VX-11e + Pemetrexed (first compound 0.4 µM), 0.757; with VX-11e + Pemetrexed (first compound 1.265 µM), 0.798. Moreover, in the assay with VX-11e + Pemetrexed (first compound 4 µM), the relative viability stood at 0.737.
On to IA-LM, for which the relative viability with VX-11e + Foretinib (first compound 0.04 µM) came to 1.09; with VX-11e + Foretinib (first compound 0.1265 µM), 1.17; in the assay with VX-11e + Foretinib (first compound 0.4 µM) it was 1.22; in the assay with VX-11e + Foretinib (first compound 1.265 µM), 0.486; with VX-11e + Foretinib (first compound 4 µM) it was 0.0917; with VX-11e + Alpelisib (first compound 0.04 µM), 0.855. Also, the relative viability worked out at 0.734 with VX-11e + Alpelisib (first compound 0.1265 µM); 0.756 with VX-11e + Alpelisib (first compound 0.4 µM); 0.387 with VX-11e + Alpelisib (first compound 1.265 µM); 0.143 in the assay with VX-11e + Alpelisib (first compound 4 µM); 0.877 with VX-11e + Olaparib (first compound 0.04 µM); 0.864 with VX-11e + Olaparib (first compound 0.1265 µM). Also, the relative viability with VX-11e + Olaparib (first compound 0.4 µM) was determined as 0.963; with VX-11e + Olaparib (first compound 1.265 µM) it was 0.536; with VX-11e + Olaparib (first compound 4 µM) it was 0.173.
As for NCI-H1703, the relative viability with VX-11e + Foretinib (first compound 0.04 µM) was 0.383; in the assay with VX-11e + Foretinib (first compound 0.1265 µM), 0.33; in the assay with VX-11e + Foretinib (first compound 1.265 µM), 0.317; with VX-11e + Foretinib (first compound 4 µM), 0.28; in the assay with VX-11e + Alpelisib (first compound 0.04 µM), 0.303; with VX-11e + Alpelisib (first compound 0.1265 µM) it was 0.401. The relative viability came out at 0.303 with VX-11e + Alpelisib (first compound 0.4 µM); 0.444 with VX-11e + Alpelisib (first compound 1.265 µM); 0.294 with VX-11e + Alpelisib (first compound 4 µM); 0.403 with VX-11e + Olaparib (first compound 0.04 µM); 0.591 with VX-11e + Olaparib (first compound 0.1265 µM); 0.393 with VX-11e + Olaparib (first compound 1.265 µM). Moreover, in the assay with VX-11e + Olaparib (first compound 4 µM), the relative viability was found to be 0.316.
Turning to HCC-44, the relative viability with VX-11e + Alpelisib (first compound 0.04 µM) stood at 0.796; with VX-11e + Alpelisib (first compound 0.1265 µM), 0.766; with VX-11e + Alpelisib (first compound 0.4 µM), 0.716; with VX-11e + Alpelisib (first compound 1.265 µM) it was 0.614; with VX-11e + Alpelisib (first compound 4 µM), 0.355; in the assay with VX-11e + Olaparib (first compound 0.04 µM), 1.02. For the same cell line, the relative viability in the assay with VX-11e + Olaparib (first compound 0.1265 µM) came out at 0.893; in the assay with VX-11e + Olaparib (first compound 0.4 µM) it was 0.897; in the assay with VX-11e + Olaparib (first compound 1.265 µM), 1.05; in the assay with VX-11e + Olaparib (first compound 4 µM), 0.93; with VX-11e + Pemetrexed (first compound 0.04 µM) it was 0.766; in the assay with VX-11e + Pemetrexed (first compound 0.1265 µM), 0.614. Also, the relative viability with VX-11e + Pemetrexed (first compound 0.4 µM) is 0.63; in the assay with VX-11e + Pemetrexed (first compound 1.265 µM), 0.656; in the assay with VX-11e + Pemetrexed (first compound 4 µM) it was 0.793.
Turning to ABC-1, the relative viability with VX-11e + Foretinib (first compound 0.04 µM) is 1.48; with VX-11e + Foretinib (first compound 0.1265 µM), 0.996; with VX-11e + Foretinib (first compound 0.4 µM), 0.899; with VX-11e + Foretinib (first compound 1.265 µM) it was 1.16; with VX-11e + Foretinib (first compound 4 µM), 0.826; in the assay with VX-11e + Alpelisib (first compound 0.04 µM) it was 0.988. In addition, the relative viability in the assay with VX-11e + Alpelisib (first compound 0.1265 µM) stood at 0.735; with VX-11e + Alpelisib (first compound 0.4 µM), 0.832; in the assay with VX-11e + Alpelisib (first compound 1.265 µM), 0.857; with VX-11e + Alpelisib (first compound 4 µM), 0.725; with VX-11e + Olaparib (first compound 0.04 µM) it was 1.22; with VX-11e + Olaparib (first compound 0.4 µM), 0.667. In addition, the relative viability in the assay with VX-11e + Olaparib (first compound 1.265 µM) was determined as 0.771; with VX-11e + Olaparib (first compound 4 µM), 0.926.
For NCI-H522, the relative viability in the assay with VX-11e + Olaparib (first compound 0.04 µM) amounted to 0.588; in the assay with VX-11e + Olaparib (first compound 0.1265 µM), 0.594; with VX-11e + Olaparib (first compound 0.4 µM), 0.457; with VX-11e + Olaparib (first compound 1.265 µM) it was 0.545; with VX-11e + Olaparib (first compound 4 µM) it was 0.533; with VX-11e + Pemetrexed (first compound 0.04 µM), 0.861. Besides, the relative viability is 0.936 in the assay with VX-11e + Pemetrexed (first compound 0.1265 µM), 0.962 with VX-11e + Pemetrexed (first compound 0.4 µM), 0.76 with VX-11e + Pemetrexed (first compound 1.265 µM) and 0.59 with VX-11e + Pemetrexed (first compound 4 µM).
